According to patent publication US11826402B2, “Combination therapy involving antibodies against claudin 18.2 for treatment of metastatic pancreatic adenocarcinoma” (Astellas Pharma Inc., priority 2013, dated 2023):

How the values were obtained:
Assay type in all cases: cell-based, human
Kato III cells [1] = assay: Kato III cells pretreated with cytostatic compounds: cell growth, viable cells, CLDN18.2 expression; details: for claudin18.2 expression versus medium cultivated cells / level of viable cells versus medium cultivated cells: Kato III pretreated 3 days, Irinotecan 1000 ng/ml, Docetaxel 5 ng/ml, Cisplatin 2000 ng/ml; for cell growth: Kato III pretreated for 4 days
KATO-III = assay: IMAB362-induced ADCC on gastric cancer cells, also after chemotherapy pretreatment; details: Kato III pretreated 3 days; Irinotecan 1000 ng/ml, Docetaxel 5 ng/ml, Cisplatin 2000 ng/ml
Description: Peripheral blood mononuclear cells (PBMCs) including NK cells, monocytes, […] or other effector cells from healthy human donors were purified by Ficoll Hypaque density centrifugation. Washed effector cells were seeded in X-Vivo medium. Kato III cells which express CLDN18.2 endogenously and are of gastric origin were used as target cells in this setting. Target cells stably expressed luciferase, lucifer yellow, which is oxidized by viable cells only.

Kato III cells [2] = assay: Cell cycle analysis of gastric cancer cells with cytostatic compounds
Description: Kato III cells, a human gastric tumor cell line, was cultivated in RPMI 1640 medium (Invitrogen) containing 20% FCS (Perbio) and 2 mM Glutamax (Invitrogen) at 37° C. and 5% CO2, with or without cytostatic compounds. 5-FU (Neofluor from NeoCorp AG) was tested at a concentration of 10 or 100 ng/ml, and oxaliplatin (Hospira) was tested at a concentration of 50 or 500 ng/ml. […] Cells were harvested with EDTA/trypsin, washed and analysed.
Cell cycle stages were determined based on measurement of cellular DNA content. This allows one to discriminate between cells in the G1-, S- or G2-phase of the cell cycle. In the S-phase DNA duplication occurs whereas in the G2-phase cells grow and prepare for mitosis. Cell cycle analysis was done using the CycleTEST PLUS DNA Reagent Kit from BD Biosciences following the manufacturer's protocol. Flow cytometry acquisition and analysis were performed by using BD FACS CantoII (BD Biosciences) and FlowJo (Tree Star) software.
Kato III cells were pretreated for 4 days with Irinotecan or Docetaxel and analysed for CLDN18.2 expression and cell cycle arrest.

MiaPaCa-2-LVT = assay: Inhibition of proliferation (XTT viability assay, 4 days)
Description: To analyze dose-response curves of each chemotherapeutic agent, a proliferation assay was performed.
Cells were seeded in 96 well plates and after 4-6 hours gemcitabine or oxaliplatin was added in following concentrations: 1000, 500, 250, 100 and 20 ng/ml. The proliferation assay was incubated for 4 days at 37° C. and 5% CO2. 50 μl XTT complete reagent (50 parts XTT+1 part coupl. reagent mixed) was added and incubated at 37° C. Measurement of absorbance (cells plus supernatant) was done with the Tecan Safire after 3 h and 4 h. Inhibition of proliferation was calculated compared to medium values set as 100%. EC50 values for gemcitabine and oxaliplatin were calculated in the GraphPad Prism program.

| SMILES | claudin18.2 expression versus medium cultivated cells (Kato III cells [1]) | level of viable cells versus medium cultivated cells (Kato III cells [1]) | effect of pretreatment on IMAB362 induced ADCC (KATO-III) | cell growth (Kato III cells [1]) | cell cycle effect (Kato III cells [2]) | sensitivity of cells to the agent (MiaPaCa-2-LVT) |
| --- | --- | --- | --- | --- | --- | --- |
| N.N.[Cl][Pt][Cl] [Cisplatin, cis-diaminedichloroplatinum(II)] | increased | lower level of viable cells | augments the potency of IMAB362 to induce ADCC |  |  |  |
| CC(=O)O[C@@]12CO[C@@H]1C[C@H](O)[C@@]1(C)C(=O)[C@H](O)C3=C(C)[C@@H](OC(=O)[C@H](O)[C@@H](NC(=O)OC(C)(C)C)c4ccccc4)C[C@@](O)([C@@H](OC(=O)c4ccccc4)[C@H]21)C3(C)C [Docetaxel, 1,7β,10β-trihydroxy-9-oxo-5β,20-epoxytax-11-ene-2α,4,13α-triyl 4-acetate 2-benzoate 13-{(2R,3S)-3-[(tert-butoxycarbonyl)-amino]-2-hydroxy-3-phenylpropanoate}] | increased | lower level of viable cells | augments the potency of IMAB362 to induce ADCC | dose dependent inhibition of cell growth | cell cycle arrest in the G2-phase |  |
| CCc1c2c(nc3ccc(OC(=O)N4CCC(N5CCCCC5)CC4)cc13)-c1cc3c(c(=O)n1C2)COC(=O)[C@]3(O)CC [Irinotecan, (S)-4,11-diethyl-3,4,12,14-tetrahydro-4-hydroxy-3,14-dioxo1H-pyrano[3′,4′:6,7]-indolizino[1,2-b]quinolin-9-yl-[1,4′-bipiperidine]-1′-carboxylate] | increased | lower level of viable cells | augments the potency of IMAB362 to induce ADCC | dose dependent inhibition of cell growth | cell cycle arrest in the S/G2-phase |  |
| O=c1[nH]cc(F)c(=O)[nH]1 [5-FU, 5-fluoro-1H-pyrimidine-2,4-dione] |  |  |  |  | blocked predominantly in the S-phase |  |
| O=C1[O][Pt]2([NH][C@@H]3CCCC[C@H]3[NH]2)[O]C1=O [oxaliplatin, [(1R,2R)-cyclohexane-1,2-diamine](ethanedioato-O,O′)platinum(II)] |  |  |  |  |  | most sensitive |
